Assay [1] has as its system Primary human fibroblasts derived from IPF patients (LL29 cells) treated with TGF-β1. Kind of assay: Inhibition of the fibrotic process: αSMA staining in TGF-β1 treated fibroblasts. The assay is classed as cell-based. The conditions noted are these: Fibroblast, 96 h, LL29 fibroblasts treated with TGF-β1, 4 days; for inhibition at 10 µM: read-out: percent inhibition in brackets beside EC50 >10 μM. A digest of the protocol: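 Potency reflects suppression of TGF-β1-driven αSMA expression in IPF patient fibroblasts over 4 days. Values are EC50s from normalized αSMA-positive cell counts, with % inhibition at 10 μM when EC50 exceeded 10 μM.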

The subject of assay [2] is primary human mesenchymal stem cells (hMSCs). Kind of assay: Induction of chondrogenesis in hMSCs (nodule area, Rhodamine B / Nile Red). The following applies: TGF-β3 as positive control; for Emax: read-out: Max. Activity as % TGF-β3 activity; for EC50: concentration required to induce 50% levels of chondrogenesis, read-out: Conc (nM) of 50% TGF-β3 activity. Format: cell-based. A digest of the protocol: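 Primary hMSCs (passage 3–6) in incomplete chondrogenic induction medium were treated 6 days at 37° C. with 1:3 dilutions (2700–10 nM in 96-well or 5000–2.2 nM in 384-well; 0.03% DMSO). Rhodamine B/Nile Red-stained nodule area was imaged, normalized to DMSO wells, and EC50 was set against TGF-β3 (10 ng/mL).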

`CC(C)CC(=O)Nc1cncc(-c2ccc3[nH]nc(-c4nc5c(-c6cccc(F)c6)nccc5[nH]4)c3n2)c1` [Compound 2, N-(5-(3-(4-(3-Fluorophenyl)-1H-imidazo[4,5-c]pyridin-2-yl)-1H-pyrazolo [4,3-b]pyridin-5-yl)pyridin-3-yl)-3-methylbutanamide]: in assay [1], the EC50 was above 10000 nM and the inhibition at 10 µM is 25.1%. Further, in assay [2], the Emax came out at 58% and the EC50 came out at 21 nM. In turn, `CN(C)c1cncc(-c2ccc3[nH]nc(-c4nc5c(-c6cccc(F)c6)nccc5[nH]4)c3n2)c1` [Compound 7] showed an EC50 in assay [1] of 387 nM. For the same molecule, in assay [2], the Emax was 58% and the EC50 came to 900 nM. In the case of `CN(C)Cc1cncc(-c2ccc3[nH]nc(-c4nc5c(-c6cccc(F)c6)nccc5[nH]4)c3n2)c1` [Compound 13, 1-(5-(3-(4-(3-Fluorophenyl)-1H-imidazo[4,5-c]pyridin-2-yl)-1H-pyrazolo [4,3-b]pyridin-5-yl)pyridin-3-yl)-N,N-dimethylmethanamine], in assay [1], the EC50 is 1690 nM. In assay [2], the Emax came out at 76% and the EC50 came to 30 nM. Turning to `Fc1cccc(-c2nccc3[nH]c(-c4n[nH]c5ccc(-c6ccncc6)nc45)nc23)c1` [Compound 18, 3-(4-(3-Fluorophenyl)-1H-imidazo[4,5-c]pyridin-2-yl)-5-(pyridin-4-yl)-1H-pyrazolo[4,3-b]pyridine], the EC50 in assay [1] was 4220 nM. For the same molecule, in assay [2], the Emax turned out to be 53% and the EC50 amounted to 2 nM.

Take `O=C(Nc1cncc(-c2ccc3[nH]nc(-c4nc5c(-c6cccc(F)c6)nccc5[nH]4)c3n2)c1)C1CC1` [Compound 20, N-(5-(3-(4-(3-Fluorophenyl)-1H-imidazo[4,5-c]pyridin-2-yl)-1H-pyrazolo [4,3-b]pyridin-5-yl)pyridin-3-yl)cyclopropanecarboxamide]: in assay [1], the EC50 is above 10000 nM and the inhibition at 10 µM worked out at 14.1%. Consider `O=C(Nc1cncc(-c2ccc3[nH]nc(-c4nc5c(-c6cccs6)nccc5[nH]4)c3n2)c1)C1CC1` [Compound 356, N-(5-(3-(4-(Thiophen-2-yl)-1H-imidazo[4,5-c]pyridin-2-yl)-1H-pyrazolo [4,3-b]pyridin-5-yl)pyridin-3-yl)cyclopropanecarboxamide], for which, in assay [1], the EC50 amounted to 5590 nM. With `Cc1ccc(-c2nccc3[nH]c(-c4n[nH]c5ccc(-c6cncc(NC(=O)C7CCCC7)c6)nc45)nc23)s1` [Compound 414, N-(5-(3-(4-(5-Methylthiophen-2-yl)-1H-imidazo[4,5-c]pyridin-2-yl)-1H-pyrazolo[4,3-b]pyridin-5-yl)pyridin-3-yl)cyclopentanecarboxamide], in assay [1], the EC50 was above 10000 nM and the inhibition at 10 µM stood at 46.2%. For the molecule `CN(C)CCNc1cc(F)cc(-c2nccc3[nH]c(-c4n[nH]c5ccc(-c6ccccn6)nc45)nc23)c1` [Compound 476, N^1-(3-Fluoro-5-(2-(5-(pyridin-2-yl)-1H-pyrazolo[4,3-b]pyridin-3-yl)-1H-imidazo[4,5-c]pyridin-4-yl)phenyl)-N^2,N^2-dimethylethane-1,2-diamine], in assay [1], the EC50 worked out at 1720 nM. As for `CS(=O)(=O)NCc1cc(F)cc(-c2nccc3[nH]c(-c4n[nH]c5ccc(-c6cncc(NC(=O)c7ccccc7)c6)nc45)nc23)c1` [Compound 487, N-(5-(3-(4-(3-Fluoro-5-(methylsulfonamidomethyl)phenyl)-1H-imidazo[4,5-c]pyridin-2-yl)-1H-pyrazolo[4,3-b]pyridin-5-yl)pyridin-3-yl)benzamide], in assay [1], the EC50 is above 10000 nM and the inhibition at 10 µM came out at 0%. For `CS(=O)(=O)NCc1cc(F)cc(-c2nccc3[nH]c(-c4n[nH]c5ccc(-c6cncnc6)nc45)nc23)c1` [Compound 503, N-(3-Fluoro-5-(2-(5-(pyrimidin-5-yl)-1H-pyrazolo[4,3-b]pyridin-3-yl)-1H-imidazo[4,5-c]pyridin-4-yl)benzyl)methanesulfonamide], in assay [1], the EC50 was above 10000 nM and the inhibition at 10 µM was 0%. Take `Fc1cccc(-c2nccc3[nH]c(-c4n[nH]c5ccc(-c6cncc(OCCN7CCCC7)c6)nc45)nc23)c1` [Compound 514, 3-(4-(3-Fluorophenyl)-1H-imidazo[4,5-c]pyridin-2-yl)-5-(5-(2-(pyrrolidin-1-yl)ethoxy)pyridin-3-yl)-1H-pyrazolo[4,3-b]pyridine]: in assay [1], the EC50 came out at 1790 nM. In assay [1], `c1cncc(-c2nccc3[nH]c(-c4n[nH]c5ccc(-c6cncc(OC7CCCCC7)c6)nc45)nc23)c1` [Compound 559, 5-(5-(Cyclohexyloxy)pyridin-3-yl)-3-(4-(pyridin-3-yl)-1H-imidazo[4,5-c]pyridin-2-yl)-1H-pyrazolo[4,3-b]pyridine] displayed an EC50 of 2730 nM. The same measure, in the same setting: for `Oc1cncc(-c2ccc3[nH]nc(-c4nc5c(-c6cccnc6)nccc5[nH]4)c3n2)c1` [Compound 565, 5-(3-(4-(Pyridin-3-yl)-1H-imidazo[4,5-c]pyridin-2-yl)-1H-pyrazolo[4,3-b]pyridin-5-yl)pyridin-3-ol] the value was 797 nM. Same read-out and setting: for `c1cc(-c2nccc3[nH]c(-c4n[nH]c5ccc(-c6cncc(OC7CCNCC7)c6)nc45)nc23)ccn1` [Compound 576, 5-(5-(Piperidin-4-yloxy)pyridin-3-yl)-3-(4-(pyridin-4-yl)-1H-imidazo[4,5-c]pyridin-2-yl)-1H-pyrazolo[4,3-b]pyridine] the value was 2390 nM. Turning to `c1ccc(COc2cncc(-c3ccc4[nH]nc(-c5nc6c(-c7ccncc7)nccc6[nH]5)c4n3)c2)cc1` [Compound 582, 5-(5-(Benzyloxy)pyridin-3-yl)-3-(4-(pyridin-4-yl)-1H-imidazo[4,5-c]pyridin-2-yl)-1H-pyrazolo[4,3-b]pyridine], in assay [1], the EC50 was above 10000 nM and the inhibition at 10 µM amounted to 0%. With `c1cc(-c2nccc3[nH]c(-c4n[nH]c5ccc(-c6cnccn6)nc45)nc23)ccn1` [Compound 584, 5-(Pyrazin-2-yl)-3-(4-(pyridin-4-yl)-1H-imidazo[4,5-c]pyridin-2-yl)-1H-pyrazolo[4,3-b]pyridine], in assay [1], the EC50 was above 10000 nM and the inhibition at 10 µM came out at 0%.

Molecule `O=C(CC1CCNCC1)Nc1cncc(-c2ccc3[nH]nc(-c4nc5c(-c6ccccn6)nccc5[nH]4)c3n2)c1` [Compound 593, 2-(Piperidin-4-yl)-N-(5-(3-(4-(pyri-2-yl)-1H-imidazo[4,5-c]pyridin-2-yl)-1H-pyrazolo[4,3-b]pyridin-5-yl)pyridin-3-yl)acetamide] came in with an EC50 in assay [1] of 1570 nM. For the molecule `c1cc2[nH]c(-c3n[nH]c4ccc(-c5cncc(OCCN6CCCC6)c5)nc34)nc2c(N2CCCCC2)n1` [Compound 610, 3-(4-(Piperidin-1-yl)-1H-imidazo[4,5-c]pyridin-2-yl)-5-(5-(2-(pyrrolidin-1-yl)ethoxy)pyridin-3-yl)-1H-pyrazolo[4,3-b]pyridine], in assay [1], the EC50 was above 10000 nM and the inhibition at 10 µM worked out at 0%. `Cc1cn(-c2nccc3[nH]c(-c4n[nH]c5ccc(-c6cncc(OCCN(C)C)c6)nc45)nc23)cn1` [Compound 627, N,N-Dimethyl-2-((5-(3-(4-(4-methyl-1H-imidazol-1-yl)-1H-imidazo[4,5-c]pyridin-2-yl)-1H-pyrazolo[4,3-b]pyridin-5-yl)pyridin-3-yl)oxy)ethan-1-amine]: the EC50 in assay [1] is 4370 nM.

Broadly, the inhibition is the percentage by which the read-out fell short of the control.

Source of the values: patent US10195185B2, “3-(1H-imidazo[4,5-C]pyridin-2-yl)-1H-pyrazolo[4,3-B]pyridines and therapeutic uses thereof” (Samumed, LLC, priority 2015, dated 2019).
